Type in all cases: in vivo, mouse
In one test the test system is C57BL/6 mice. The test can be described thus: Cardiac biometric parameters (left ventricular weight) three days after transverse aortic constriction (TAC) or sham operation. The source says: (§1) 11 to 13 week old male C57BL/6 mice were purchased from Charles River (Germany). Mice were housed in individually ventilated pathogen-free cages with free access to water and standard rodent chow. The animals were handled according to the principles of laboratory animal care (NIH publication No. 85-23, revised 1996), and animal procedures were approved by the local committee for animal care.
To allow for repetitive intravenous injections, a venous port was implanted. Mice were anesthetized with isoflurane 2.0 vol % (Forene®, Abbott GmbH, Germany). Body temperature was maintained at 37° C. The jugular vein was exposed and a catheter (outer diameter 0.64 mm, Dow Corning Europe, Wiesbaden, Germany) inserted into the vessel via a small incision. The catheter was secured with a silk thread and tissue adhesive (Histoacryl, Braun, Germany). Finally, the catheter was tunneled subcutaneously and connected to an extracutaneous port through an incision between scapulae.
(§2) The first injection was performed 5 min prior to TAC or sham-operation procedure (described below) and repeated 4, 8, 12, 24, 36, 48 and 60 hrs after surgery. Animals were randomly assigned into two groups, receiving either a tetrasodium salt of the compound of formula 1 (hereinafter “Eritoran tetrasodium”) or placebo. The catheter was flushed with 50 μl 0.9% NaCl before and 100 μl after each injection of 50 μl Eritoran tetrasodium (2.5 mg/ml vehicle; 5 mg/kg bodyweight/application; dosage adopted from Shimamoto et al., Circulation 2006, 114: 1270-1274) or placebo solution.
Treatment groups were separated into two subgroups, undergoing transverse aortic constriction (TAC) or sham operation. Surgery for TAC was achieved as published previously (see, e.g., Baumgarten et al., Circulation 2002, 105: 2192-2197 and Baumgarten et al., Basic Res Cardiol 2006, 101: 427-435). Mice were intubated in a supine position and mechanical ventilation was initiated (MiniVent 845, Hugo Sachs Elektronik, Germany). A left parasternal incision was performed. A suture was passed underneath the aorta and tied down on a 27 Gauge needle, which was immediately removed and allowed to achieve a standardised and previously validated decreased diameter of the aorta. For sham operation the suture was passed underneath the aorta without ligation. For analgesia, mice received a single intraperitoneal injection of 0.065 mg/kg BW buprenorphine.
Three days after TAC or sham operation, the impact on cardiac biometric parameters was investigated. Body weight was registered. Heart and lung were excised, prepared and immediately measured. Total heart weight, left ventricular weight as well as lung weight and tibia length were recorded. Ventricles were snap frozen in liquid nitrogen and kept at −80° C.
Statistics were calculated using Prism 4.05 (GraphPad Software Inc., CA, USA). All values are expressed as mean (M)±SEM. One-way ANOVA with Newman-Keuls post-hoc testing was performed for statistical analysis with the exception of TIMP and cytokine expression which were analysed with Kruskal-Wallis and Dunn's multiple comparison post-hoc testing Impact of TAC-Eritoran on IL-10 expression was analysed with Two-way ANOVA. Differences between experimental groups were considered to be significant with p<0.05.
Example 2 was completed in a manner similar to Example 1, with minor changes as described below.
With the consent of proper authority (LANUV), 12 week old male C57BL/6-mice were anesthetized with Isofluran (2.0 Vol. %) and a catheter was implanted into the right jugular vein. Afterwards, either transverse aortic constriction (TAC) or a sham operation was performed. In TAC animals, the aortic diameter was reduced by 70% with a 6-0 silk filament. Mice received either the compound of formula (I) or placebo i.v. 5 minutes prior to TAC/sham-operation and 6 h, 12 h, 24 h, 36 h, 48 h and 60 h after surgery. […]

Another test has as its system TIMP-1. The test is described as follows: qRT-PCR of TIMP-1 mRNA in left ventricle after TAC/sham. On the procedure: as §1, §2
Treatment groups were separated into two subgroups, undergoing transverse aortic constriction (TAC) or sham operation. […]
Quantitative real-time PCR analysis was completed. […] RNA was dissolved in 100 μl of RNase-free water, and concentration was determined photometrically (absorbance at 260 nm) before storage at −80° C. […]
Real-time PCR was performed according to the manufacturer's protocol. […] Each sample was measured in triplicate wells and underwent 40 cycles of amplification on an ABI PRISM® Sequence Detection System (Applied Biosystems). CT values were determined with SDS Software 2.2 (Applied Biosystems) and relative quotients (RQ) were calculated following the ΔΔCT method (RQ target gene/GAPDH).
Statistics were calculated using Prism 4.05 (GraphPad Software Inc., CA, USA). All values are expressed as mean (M)±SEM. One-way ANOVA with Newman-Keuls post-hoc testing was performed for statistical analysis with the exception of TIMP and cytokine expression which were analysed with Kruskal-Wallis and Dunn's multiple comparison post-hoc testing Impact of TAC-Eritoran on IL-10 expression was analysed with Two-way ANOVA. […]
Background: Real-time PCR tracks product formation cycle by cycle.

The next test concerns TLR4. The test can be described thus: qRT-PCR of TLR4 mRNA in left ventricle after TAC/sham.
The subject of another test is IL-1β. The test is described as follows: ELISA of IL-1β protein in myocardial tissue after TAC/sham. How it is done: as §1
The first injection was performed 5 min prior to TAC or sham-operation procedure (described below) and repeated 4, 8, 12, 24, 36, 48 and 60 hrs after surgery. Animals were randomly assigned into two groups, receiving either a tetrasodium salt of the compound of formula 1 (hereinafter “Eritoran tetrasodium”) or placebo. […]
For ELISA assays, proteins from snap-frozen myocardial tissue were isolated and cytosolic and nuclear proteins separated according to the manufacturer's protocol (NE-PER®, Nuclear and Cytoplasmic Extraction Kit, Pierce®, Thermo Scientific, IL, USA). Myocardial protein levels in the cytoplasmic fraction were detected with Quantikine mouse IL-1β as well as IL-6 ELISA (R&D Systems, […], USA) as described in the manufacturer's protocol. […] Protein concentration was determined by B CA protein assay (Pierce®).
Statistics were calculated using Prism 4.05 (GraphPad Software Inc., CA, USA). All values are expressed as mean (M)±SEM. […]

The mark [1] stands for this setting: Example 1, TAC vs sham-operated, 5 mg/kg i.v. per application, three days after surgery.
[2] abbreviates: Example 1, TAC, three days after surgery.
[3] abbreviates: Example 2, TAC treated vs TAC-placebo.

“Also recorded” adds a separate entry of the source.

Consider `CCCCCC/C=C\CCCCCCCCCC(=O)N[C@H]1[C@H](OC[C@H]2O[C@H](OP(=O)([O-])[O-])[C@H](NC(=O)CC(=O)CCCCCCCCCCC)[C@@H](OCCCCCCCCCC)[C@@H]2O)O[C@H](COC)[C@@H](OP(=O)([O-])[O-])[C@@H]1OCC[C@@H](CCCCCCC)OC.[Na+].[Na+].[Na+].[Na+]` [Eritoran tetrasodium], for which, in the test on C57BL/6 mice (setting [1]), the “left ventricular weight/body weight (LVW/BW)” value was “did not differ from sham-operated mice”. The “left ventricular weight/tibia length (LVW/TL)” value in the test with C57BL/6 mice (setting [1]) was “did not differ from sham-operated mice”. Besides, in the test on C57BL/6 mice (Example 1, TAC, 5 mg/kg i.v. per application, three days after surgery), the “left ventricular weight (LVW)” value was 81.32 ± 4.21 mg. The “cardiac hypertrophy after TAC” value with C57BL/6 mice (Example 1, TAC, 5 mg/kg i.v. per application, three days after surgery, 5 mg/kg) is on record as “decreases cardiac hypertrophy after TAC; also recorded: diminished cardiac hypertrophy induced by pressure overload”. Also, the “TIMP-1 mRNA expression” value is 23.20±14.52 in the test on TIMP-1 (Example 1, TAC, three days after surgery, RQ target gene/GAPDH) and 1.16±0.40 in the test on TIMP-1 (Example 1, sham operation, three days after surgery, RQ target gene/GAPDH). In addition, the “TLR4 mRNA expression” value with TLR4 (setting [2]) is “no significant effects”; in the test on TLR4 (Example 1, sham operation, three days after surgery), “had no effects on the mRNA expression”. In addition, in the test on IL-1β (setting [2]), the “IL-1β protein expression (ELISA)” value is on record as “did not display significant increases; also recorded: lower levels of pro-inflammatory cytokines compared to TAC placebo hearts (not significant)”.
For the compound `CCCCCC/C=C\CCCCCCCCCC(=O)N[C@H]1[C@H](OC[C@H]2O[C@H](OP(=O)(O)O)[C@H](NC(=O)CC(=O)CCCCCCCCCCC)[C@@H](OCCCCCCCCCC)[C@@H]2O)O[C@H](COC)[C@@H](OP(=O)(O)O)[C@@H]1OCC[C@@H](CCCCCCC)OC` [compound of formula (I), α-D-Glucopyranose, 3-O-decyl-2-deoxy-6-O-[2-deoxy-3-O-[(3R)-3-methoxydecyl)-6-O-methyl-2-[[(−11Z)-1-oxo-11-octadecenyl)amino]-4-O-phosphono-β-D-glucopyranosyl]-2-[(1,3-dioxotetradecyl)amino]-1-(dihydrogen phosphate)], the “left ventricle weight (LVW)” value in the test on C57BL/6 mice (Example 2, TAC, i.v. 5 min prior to and 6-60 h after surgery, three days after surgery) amounted to 81.32 ± 4.2 mg. In the test with C57BL/6 mice (Example 2, murine model of transverse aortic constriction (TAC)), the “development of cardiac hypertrophy” value was “prevents the development of cardiac hypertrophy”. The “TIMP-1 mRNA expression” value with TIMP-1 (setting [3]) is “higher”. Further, the “TLR4 mRNA expression” value in the test with TLR4 (setting [3]) was “significantly reduced”. Moreover, the IL-1β protein expression result in the test on IL-1β (Example 2, TAC treated group) is listed as “reduced”.

Source of the values: patent US20110201569A1, “Methods For Treating Myocardial Disorders” (priority 2009, published 2011).
